According to the supplement of paper PMC10307832:

Columns and labels:
Assay in all cases: relative viability (nuclei count vs DMSO), 5 days (fraction); higher = more cells survive
HOP-62 = system: HOP-62
Outline: (§1)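 Relative viability is defined as nuclei in treated wells over nuclei in vehicle wells. Duplicate plates were run and medians reported. Lung cancer cell lines in 1536-well plates were dosed by pin tool one day after seeding, with one drug or with a fixed anchor-drug dose plus five library-drug doses (not always all listed) in √10 steps, and nuclei were counted after 5 days.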

LCLC-103H = system: LCLC-103H
Outline: as §1

LOU-NH91 = system: LOU-NH91
Outline: as §1

NCI-H2126 = system: NCI-H2126
Outline: as §1

NCI-H460 = system: NCI-H460
Outline: as §1

NCI-H520 = system: NCI-H520
Outline: as §1

NCI-H2170 = system: NCI-H2170
Outline: as §1

NCI-H727 = system: NCI-H727
Outline: as §1

EMC-BAC-2 = system: EMC-BAC-2
Outline: as §1

NCI-H650 = system: NCI-H650
Outline: as §1

NCI-H1437 = system: NCI-H1437
Outline: as §1

ChaGo-K-1 = system: ChaGo-K-1
Outline: as §1

Compound: O=C(O)CCCCC(CCSCc1ccccc1)SCc1ccccc1 (configuration not stated) [CPI-613] + O=C(CCCCCCC(=O)Nc1ccccc1)NO [Vorinostat] (partner 1 µM)
- relative viability (HOP-62; first compound 5 µM): 0.531
- relative viability (HOP-62; first compound 15.81 µM): 0.49
- relative viability (HOP-62; first compound 50 µM): 0.574
- relative viability (HOP-62; first compound 158.11 µM): 0.285
- relative viability (HOP-62; first compound 500 µM): 0.0726
- relative viability (LCLC-103H; first compound 5 µM): 0.731
- relative viability (LCLC-103H; first compound 15.81 µM): 0.662
- relative viability (LCLC-103H; first compound 50 µM): 0.771
- relative viability (LCLC-103H; first compound 158.11 µM): 0.683
- relative viability (LCLC-103H; first compound 500 µM): 0.207
- relative viability (LOU-NH91; first compound 5 µM): 0.891
- relative viability (LOU-NH91; first compound 15.81 µM): 0.844
- relative viability (LOU-NH91; first compound 50 µM): 0.871
- relative viability (LOU-NH91; first compound 158.11 µM): 0.837
- relative viability (LOU-NH91; first compound 500 µM): 0.622
- relative viability (NCI-H2126; first compound 5 µM): 0.743
- relative viability (NCI-H2126; first compound 15.81 µM): 0.68
- relative viability (NCI-H2126; first compound 50 µM): 0.831
- relative viability (NCI-H2126; first compound 158.11 µM): 0.342
- relative viability (NCI-H2126; first compound 500 µM): 0.179
- relative viability (NCI-H460; first compound 5 µM): 0.698
- relative viability (NCI-H460; first compound 15.81 µM): 0.553
- relative viability (NCI-H460; first compound 50 µM): 0.718
- relative viability (NCI-H460; first compound 158.11 µM): 0.0356
- relative viability (NCI-H460; first compound 500 µM): 0.008
- relative viability (NCI-H520; first compound 5 µM): 0.831
- relative viability (NCI-H520; first compound 15.81 µM): 0.693
- relative viability (NCI-H520; first compound 50 µM): 0.657
- relative viability (NCI-H520; first compound 158.11 µM): 0.325
- relative viability (NCI-H520; first compound 500 µM): 0.11
- relative viability (NCI-H2170; first compound 5 µM): 0.723
- relative viability (NCI-H2170; first compound 15.81 µM): 0.783
- relative viability (NCI-H2170; first compound 50 µM): 0.774
- relative viability (NCI-H2170; first compound 158.11 µM): 0.541
- relative viability (NCI-H2170; first compound 500 µM): 0.31
- relative viability (NCI-H727; first compound 5 µM): 1.1
- relative viability (NCI-H727; first compound 15.81 µM): 1.07
- relative viability (NCI-H727; first compound 50 µM): 1.04
- relative viability (NCI-H727; first compound 158.11 µM): 1.01
- relative viability (NCI-H727; first compound 500 µM): 0.642
- relative viability (EMC-BAC-2; first compound 5 µM): 0.499
- relative viability (EMC-BAC-2; first compound 15.81 µM): 0.339
- relative viability (EMC-BAC-2; first compound 50 µM): 0.469
- relative viability (EMC-BAC-2; first compound 158.11 µM): 0.356
- relative viability (EMC-BAC-2; first compound 500 µM): 0.0895
- relative viability (NCI-H650; first compound 5 µM): 0.447
- relative viability (NCI-H650; first compound 15.81 µM): 0.365
- relative viability (NCI-H650; first compound 50 µM): 0.301
- relative viability (NCI-H650; first compound 158.11 µM): 0.297
- relative viability (NCI-H650; first compound 500 µM): 0.414
- relative viability (NCI-H1437; first compound 5 µM): 0.803
- relative viability (NCI-H1437; first compound 15.81 µM): 0.637
- relative viability (NCI-H1437; first compound 50 µM): 0.689
- relative viability (NCI-H1437; first compound 158.11 µM): 0.093
- relative viability (NCI-H1437; first compound 500 µM): 0.0541
- relative viability (ChaGo-K-1; first compound 5 µM): 0.737
- relative viability (ChaGo-K-1; first compound 15.81 µM): 0.685
